From US4342775A, “3-(1-Imidazolyl)-derivatives of 2,3-dihydro-4H-1-benzopyran” (Farmitalia Carlo Erba S.p.A., priority 1980, dated 1982) come the findings set out here.

For test [1], the system named is Icem: CER (SPF Caw) male rats fed hypercholesterolaemic diet. Description: Experiment No. 1: serum lipids in rats fed hypercholesterolaemic diet. The following applies: 50 mg/kg/os for 4 days, *** p < 0.01. In kind it is in vivo, rat. On the procedure: (§1) The activity of the compounds of the invention was evaluated on groups of Icem: CER (SPF Caw) male rats either fed for six days with hypercholesterolaemic diet according to C. E. Day [Schurr P. E., Schultz H. R., Day C. E. (Eds) Atherosclerosis and drug discovery--Plenum Pub. Corp., 217 (1976)] (Experiment No. 1) or fed standard diet Altromin (Experiment No. 2). "Altromin" is a trade mark.
(§2) The compounds were suspended in "Methocel" (methyl cellulose, a 0.5% suspension in water) and administered by stomach tube at the dose of 50 mg/kg for 4 days.
(§3) Groups of animals were treated with the suspending agent only (control groups).
(§4) The total serum cholesterol was determined with the method of Trinder P. J. [J. Clin. Pathol., 22, 246 (1969)].
(§5) The total serum HDL cholesterol was determined according to Demacker P. N. M. [Clin. Chem., 23, 1238, (1977)]. The total β-lipoprotein cholesterol was determined by difference between total serum cholesterol and HDL cholesterol.
Statistical analysis in experiment No. 1 was performed by the Student's test for independent samples or by the Cochran's t test when the variances were not homogeneous at the F ratio test [Bliss C. I.--Statistics in Biology, Vol. 1, page 213--Mc Graw Hill Book Company, New York, 1967; Cochran W. G., Cox G. M.--Experimental designs--J. Wiley e Sons Inc., New York, II Ed. (1968) page 100].
The Table 1 reports the values of serum total cholesterol and total HDL cholesterol and ratio between α and β lipoprotein total cholesterol from animals fed hypercholesterolaemic diet and treated with two compounds of the invention: 3-(1-imidazolyl)-2,3-dihydro-6-chloro-4H-1-benzopyran-4-one: compound A, and 3-(1-imidazolyl)-2,3-dihydro-6-chloro-4H-1-benzopyran-4-ol (trans isomer): compound B, in comparison with the values of the same variables in controls.

Test [2] relates to Icem: CER (SPF Caw) male rats fed standard diet Altromin. Nature of the test: Experiment No. 2: serum lipids in rats fed standard diet Altromin. In kind it is in vivo, rat. The following applies: 50 mg/kg/os for 4 days; for Serum HDL total cholesterol, mean ± S.E.: ** p < 0.05; for Serum triglycerides, mean ± S.E. / Total serum cholesterol, mean ± S.E. / α/β lipoprotein total cholesterol, mean: *** p < 0.01. The method, then:
as §1, §2, §3, §4
The serum triglycerides were determined with the method of Mendez J. [J. Clin. Chem., 21, 768, (1975)].
as §5
W.--J. Amer. Stat. Ass., 50, 1096 (1955)]. Taking in account the ratio between α and β lipoprotein cholesterol it was necessary to make the variances homogeneous by a transformation of the values (√x).

For test [3], the system named is collagen-induced platelet aggregation. Nature of the test: in vitro collagen-induced platelet aggregation in platelet rich plasma (method of Born). In kind it is cell-based. As to conditions: final 25 mcg/ml; induced by 2 mcg/ml collagen; Guinea pig platelet rich plasma. On the procedure:
The compounds of the invention are also endowed with blood platelet-antiaggregating activity. This activity was evaluated e.g. "in vitro" on the basis of the ability of the test compounds to inhibit the collagen-induced platelet aggregation in Guinea pig platelet rich plasma according to the method of Born "Born G.V.R.--Nature, […] (1962)].

Consider `O[C@H]1c2cc(Cl)ccc2OC[C@@H]1n1ccnc1` (relative stereo) [Compound B, 3-(1-imidazolyl)-2,3-dihydro-6-chloro-4H-1-benzopyran-4-ol (trans isomer)], for which, in test [1], the “Serum HDL total cholesterol, mean ± S.E.” value was 47.6 ± 2.4 mg/100 ml; the “Total serum cholesterol, mean ± S.E.” value was determined as 184.4 ± 19.7 mg/100 ml; the “α/β lipoprotein cholesterol, mean ± S.E.” value is given as 0.3664 ± 0.055. In test [2], the “Serum HDL total cholesterol, mean ± S.E.” value was 50.3 ± 1.7 mg/100 ml; the “Serum triglycerides, mean ± S.E.” value was determined as 90.6 ± 6.1 mg/100 ml; the “Total serum cholesterol, mean ± S.E.” value is recorded as 72.4 ± 2.3 mg/100 ml; the “α/β lipoprotein total cholesterol, mean” value was determined as 1.432.

As to `O=C1c2cc(Cl)ccc2OCC1n1ccnc1` (stereo not drawn) [Compound A, 3-(1-imidazolyl)-2,3-dihydro-6-chloro-4H-1-benzopyran-4-one], the “inhibition of platelet aggregation” value in test [3] was “inhibit wholly”. In test [1], the “Serum HDL total cholesterol, mean ± S.E.” value is on record as 44.3 ± 1.3 mg/100 ml; the “Total serum cholesterol, mean ± S.E.” value was 133.2 ± 10.1 mg/100 ml; the “α/β lipoprotein cholesterol, mean ± S.E.” value turned out to be 0.548 ± 0.052. In test [2], the “Serum HDL total cholesterol, mean ± S.E.” value was 52.3 ± 2.5 mg/100 ml; the “Serum triglycerides, mean ± S.E.” value turned out to be 77.2 ± 7.0 mg/100 ml; the “Total serum cholesterol, mean ± S.E.” value worked out at 73.4 ± 3.0 mg/100 ml; the “α/β lipoprotein total cholesterol, mean” value is recorded as 1.450.
